Tests used:
[1] = system: T lymphocyte cells; experiment: ConA-induced T-cell proliferation ([3H]-thymidine uptake); format: cell-based, BALB/c mice; conditions: Mus musculus, spleen cells stimulated with 5 µg/mL ConA, read-out: Con A-Induced T-Cell Proliferation IC50
Description: (§1) Female BALB/c mice were sacrificed by cervical dislocation, and their spleens were aseptically removed. After cell debris, mononuclear cell suspensions were prepared, and clumps were removed. Erythrocytes were depleted with ammonium chloride buffer solution. Lymphocytes were washed and resuspended in RPMI 1640 medium supplemented with 10% FBS, penicillin (100 U/mL), and streptomycin ([…]).

[2] = Cytotoxicity on mouse spleen cells (CCK-8 assay); format: cell-based, BALB/c mice; conditions: female, fresh mouse spleen cells (splenic lymphocytes), BALB/c mouse spleen cells
Description: as §1
We used the Cell Counting Kit-8 (CCK-8) assay to test cytotoxicity. In brief, fresh spleen cells were obtained from female BALB/c mice (18–20 g). Spleen cells (1 × 10^6 cells) were seeded in triplicate in 96-well flat plates and cultured at 37 °C for 48 h, with or without compounds of various concentrations, in a humidified and 5% CO2-containing incubator. A certain amount of CCK-8 was added to each well during the last 8–10 h of culture. At the end of the culture, we use a microplate reader (Bio-Rad 650) to measure the OD value at 450 nm. […] Only the OD value of culture medium is used as background. The cytotoxicity of compounds was expressed as the concentration of the compounds that reduces cell viability to 50% (CC50).

[3] = system: B lymphocyte cells; experiment: LPS-induced B-cell proliferation ([3H]-thymidine uptake); format: cell-based, BALB/c mice; conditions: Mus musculus, spleen cells stimulated with 10 µg/mL LPS
Description: as §1
As mentioned above, fresh spleen cells were obtained from female BALB/c mice (18–20 g). Similarly, the 5 × 10^5 spleen cells were cultured at the same conditions. The cultures, with or without various concentrations of compounds, were stimulated with 5 µg/mL of concanavalin A (ConA) to induce the T cells’ proliferative response or 10 µg/mL of lipopolysaccharide (LPS) to induce B cells’ proliferative response. Proliferation was assessed in terms of uptake of [^3H]-thymidine during 8 h of pulsing with 25 µL/well of [^3H]-thymidine, then cells will be harvested onto glass fiber filters. A Beta scintillation counter was used to count the incorporated radioactivity. Cells treated without any stimuli were used as a negative control. The immunosuppressive activity was expressed as the concentration of the compound that inhibited T or B cell proliferation to 50% (IC50) of the control value. Both the cytotoxicity and proliferation assessment were repeated twice.

C=C1CCC2CC1C2(COC(C)=O)CC(O)C=C(C)C(=O)O (stereo not shown) [Compound 17, Craterodoratin Q]
IC50 [1]: 31.5 ± 1.79 µM
CC50 at 48 h [2]: > 40 µM

CC(=CC(=O)CC12C(=O)OC3(C)CCC1CC32)C(=O)O (stereo not shown) [Compound 12, Craterodoratin L]
IC50 [3]: 13.7 ± 0.65 µM
CC50 at 48 h [2]: > 40 µM

CC(=CC(O)CC12COC3(CO)CCC1CC32)C(=O)O (stereo not shown) [Compound 10, Craterodoratin J]
IC50 [3]: 19.4 ± 0.48 µM
CC50 at 48 h [2]: > 40 µM

CC(=CCCC1(C)C2CCC(CO)C1(O)C2)C(=O)O (stereo not shown) [Compound 14, Craterodoratin N]
IC50 [3]: 13.3 ± 1.29 µM
CC50 at 48 h [2]: > 40 µM

CC(=CC(O)CC12COC3(C)CCC1CC32)C(=O)O (stereo not shown) [Compound 20, massarinolin B]
IC50 [3]: 0.67 ± 0.004 µM
IC50 [1]: 0.98 ± 0.01 µM
CC50 at 48 h [2]: > 40 µM

CC(=CCCC1(C)C2CCC(CO)C1C2)C(=O)O (stereo not shown) [Compound 13, Craterodoratin M]
IC50 [3]: 15.4 ± 1.03 µM
CC50 at 48 h [2]: > 40 µM

C=C1CCC2(O)CC1C2(C)CCC=C(C)C(=O)O (stereo not shown) [Compound 15, Craterodoratin O]
IC50 [3]: 17.1 ± 1.14 µM
CC50 at 48 h [2]: > 40 µM

CC(=CC1CC23C4CCC(C)(OC2O1)C3C4)C(=O)O (stereo not shown) [Compound 23, donacinoic acid A]
IC50 [3]: 13.2 ± 0.97 µM
CC50 at 48 h [2]: > 40 µM

C=C1C2CN(CC(=O)O)CC3C2C(C(C)C)CCC13C (stereo not shown) [Compound 19, Craterodoratin S]
IC50 [3]: 22.7 ± 1.67 µM
CC50 at 48 h [2]: > 40 µM

CC(=CCCC1(C)C2CCC(CO)(C2)C1O)C(=O)O (stereo not shown) [Compound 3, Craterodoratin C]
melting point: 180.7 to 182.4 °C
IC50 [3]: 12.6 ± 1.14 µM
CC50 at 48 h [2]: > 40 µM

Reference: article PMC8707212, “Immunosuppressive Sesquiterpenoids from the Edible Mushroom Craterellus odoratus” (Journal of Fungi, 2021)
